The results in this text go back to patent US20250009702A1 (SICHUAN JIUZHANG BIOLOGICAL SCIENCE AND TECHNOLOGY CO., LTD., priority 2021, published 2025).

In data set [1] the test system is pfeiffer cancer cells (diffuse large B-cell lymphoma cell line). In words: MTS assay of the in vitro inhibitory effect on DLBCL cells (pfeiffer). The format is cell-based. The note with it: for OD value Mean / OD value 1 / OD value 2 / OD value 3: MTS, 490 nm; for OD value 1: well 1; for OD value 2: well 2; for OD value 3: well 3. The method, then: 2.2 MTS Assay of the In Vitro Inhibitory Effect of the Treatment Group on DLBCL Cells (Pfeiffer)
The cells in logarithmic growth phase were digested with 0.25% trypsin, washed with the basic medium, and centrifuged (1000 r/min, twice in 5 minutes). The cells were suspended with complete medium, and the cell concentration was adjusted to […], which was inoculated into a 96-well plate at 50 μl/well (6×10^3 cells/well).
The next day, after the cells adhered to the wall, the drug was given to each group and then incubated for 48 h at a constant temperature of 37° C. under 5% CO2. The dosage for each well is 100 μl. For the blank group, no cell was inoculated, and an equal amount of medium (100 μl) was added; the negative control group received an equal amount of medium (100 μl) after cell inoculation, and 3 wells were set for one group.
20 μl of MTS was added to each well. The plate was further cultivated for 3 h for color development, and then shaken for 10 seconds before testing, to mix well.
The OD value was determined at a wavelength of 490 nm using an enzyme-linked immunosorbent assay (ELISA), and the OD value of the blank control was adjusted to 0.

In data set [2] the test system is DLBCL in the brain (DLBCL Ly8 cell lines). In words: In vivo treatment of DLBCL in the brain (Ly8 transplanted tumor model). The conditions noted are these: i.p. 3 mg/kg once every two days.
Source text: DLBCL Ly8 cell lines were purchased from the Cancer Hospital of Fudan University, which were suspended, cultured, and passaged in 10% calf serum DMEM complete medium, with stable growth. Cells in the logarithmic growth phase were collected, centrifuged, counted, and diluted to 10^4/μl for later use. Cells were inoculated at 2×10^4 cells/animal.
(§1) BALB/c mice: 60 mice, half male and half female, 3-4 weeks old, weighing 15-22 g, purchased from the Experimental Animal Management Center of West China Medical Center.
The mice were anesthetized by intraperitoneal injection of 1% pentobarbital sodium (0.2 μl), fixed on a stereotactic device, and disinfected with 2% chlorhexidine iodine solution on the skin of skull part. The injection site of the syringe was 0.1 cm to the left or right of the midline of the skull, and 0.3 cm in front of the coronal suture in mice. The microsyringe was sequentially penetrated through the skin and skull of the mouse skull part, and was fixed about 1-2 mm into the skull. 2 μl of Ly8 cell suspension was slowly injected (about 2×10^4 cells), and the injection was performed within 15 minutes, followed by leaving the needle for 5 minutes to allow the cells to fully attach, and then slowly removing the needle. […] During sleep after anesthesia, the mice were kept at 30° C. for 2 h. After anesthesia wore off, the mice were placed at room temperature of 25° C., and the surface changes were observed 24 h after inoculation. The following symptoms were observed: topical protrusion on the injection side, body emaciation, lethargy, and decreased mobility.
The mice in the above test drug groups receiving the prepared drug were administered by intraperitoneal injection at 0.2 mL/10 g body weight. The drug preparation was formulated prior to daily administration, and given for 14 days.
(§2) During the administration period, the growth of the mouse tumor, eating, activity, and other adverse reactions were observed and recorded every other day. After 14 days of administration, the mice were euthanized using cervical dislocation method, and their body weight and tumor size were measured and recorded according to the pre-administration numbers. The tumor inhibition rate (%) was calculated based on tumor weight.
In data set [3] the test system is DLBCL in the orbit (DLBCL pfeiffer cell lines). The data set is described as follows: In vivo treatment of DLBCL in the orbit (pfeiffer transplanted tumor model).
Procedure: DLBCL pfeiffercell lines were purchased from ATCC, USA.
as §1
The cells were thawed in a 37° C. water bath according to the method provided by ATCC, and cultured in RPMI-1640 medium. The medium was exchanged or the cells were passaged every 1-2 days. When the cells were in a stable proliferative state, the cells with good vitality were selected from the 2nd to 3rd generations and counted under a microscope using a cell counting board. The concentration of inoculate cells was adjusted to 1.5×10^8/ml, and sealed for later use.
The tumor cell suspension inoculation method was used. Before cell inoculation, all mice were subjected to cesium-137 radiation to further immunosuppress and improve the success rate of inoculation. Tumor cells were inoculated within 6 hours after irradiation. After disinfecting with 75% alcohol around the eyes, 0.1 ml of tumor cell suspension was drawn using an 1 ml empty needle, and injected into the orbit through the skin of the upper temporal eyelid. […] After inoculation, high-pressure sterilized water containing 100000 U/L of gentamicin was given for one week to prevent infection. 5% glucose with egg yolk was orally administered daily to enhance nutrition. The growth state of mice and local tumor growth was observed every day.
The drug preparation was formulated prior to daily administration, and given for 14 days.
as §2
Where [4] appears, read: Homo sapiens, 10 μg/ml, 48 h, pfeiffer cells, read-out: Inhibition rate (%).
[5] abbreviates: i.p. 3 mg/kg once every two days, 14 days.

Regarding `CN(Cc1cnc2nc(N)nc(N)c2n1)c1ccc(C(=O)N[C@@H](CCC(=O)O)C(=O)O)cc1` [methotrexate], in data set [1] (10 μg/ml, 48 h), the “OD value Mean” value is recorded as 1.193, the “OD value 1” value is listed as 1.202, the “OD value 2” value came out at 1.193 and the “OD value 3” value was 1.185. The inhibition (commonly the drop in the measured response relative to a control, in per cent) at 10 µg/mL in data set [1] (setting [4]) stood at 48.7%. Further, in data set [2] (14 days), the “Survival number (mouse)” value stood at 6 mouse, the “Tumor inhibition rate (%)” value was found to be 41.06%, the “Tumor weight” value was determined as 0.79 ± 0.12 g and the “Weight (g) After treatment” value is given as 17.26 ± 0.65 g. The molecule also registered a deaths in data set [2] (positive control group) of 1. Further, the “Body weight (g) Before administration” value in data set [3] (before administration, group later given i.p. 3 mg/kg once every two days) stood at 19.31 ± 0.66 g. In data set [3] (setting [5]), the “Body weight (g) After administration” value was found to be 18.23 ± 0.79 g, the “Survival number (mice)” value came out at 6 mice and the “Tumor inhibition rate (%)” value is 41.14%. Also, the deaths in data set [3] (positive control group, i.p. 3 mg/kg once every two days) is recorded as 1.
As to `O=C(/C=C/c1ccc(O)c(O)c1)O[C@@H]1C[C@](O)(C(=O)O)C[C@@H](O)[C@H]1O` [CHA, Chlorogenic acid], the “OD value Mean” value in data set [1] (5 μg/ml, 48 h) amounted to 1.263; in data set [1] (10 μg/ml, 48 h), 1.149; in data set [1] (30 μg/ml, 48 h) it was 0.998; in data set [1] (50 μg/ml, 48 h), 0.628; in data set [1] (100 μg/ml, 48 h), 0.658. The “OD value 1” value in data set [1] (5 μg/ml, 48 h) was found to be 1.335; in data set [1] (10 μg/ml, 48 h), 1.156; in data set [1] (30 μg/ml, 48 h) it was 1.006; in data set [1] (50 μg/ml, 48 h), 0.630; in data set [1] (100 μg/ml, 48 h), 0.661. The “OD value 2” value in data set [1] (5 μg/ml, 48 h) was 1.221; in data set [1] (10 μg/ml, 48 h) it was 1.142; in data set [1] (30 μg/ml, 48 h), 1.007; in data set [1] (50 μg/ml, 48 h) it was 0.621; in data set [1] (100 μg/ml, 48 h) it was 0.65. Besides, the “OD value 3” value is recorded as 1.233 in data set [1] (5 μg/ml, 48 h); 1.15 in data set [1] (10 μg/ml, 48 h); 0.98 in data set [1] (30 μg/ml, 48 h); 0.634 in data set [1] (50 μg/ml, 48 h); 0.664 in data set [1] (100 μg/ml, 48 h). In data set [1] (50-100 μg/ml, 48 h), the “cell morphology / growth of pfeiffer cancer cell lines under inverted microscope” value was “significant inhibitory effect”. The inhibition at 5 µg/mL in data set [1] (Homo sapiens, 5 μg/ml, 48 h, pfeiffer cells, read-out: Inhibition rate (%)) is 45.7%. For the same molecule, the inhibition at 10 µg/mL in data set [1] (setting [4]) is 50.6%. For the same molecule, in data set [1] (Homo sapiens, 30 μg/ml, 48 h, pfeiffer cells, read-out: Inhibition rate (%)), the inhibition at 30 µg/mL stood at 57.1%. Also, the inhibition at 50 µg/mL in data set [1] (Homo sapiens, 50 μg/ml, 48 h, pfeiffer cells, read-out: Inhibition rate (%)) worked out at 73%. In data set [1] (Homo sapiens, 100 μg/ml, 48 h, pfeiffer cells, read-out: Inhibition rate (%)), the inhibition at 100 µg/mL is 71.7%. Also, the tumor inhibition rate in data set [1] (concentration 50-100 μg/ml, pfeiffer cells) is reported as 71.68-72.97%. Besides, the “inhibitory effect on pfeiffer cancer cells compared with methotrexate” value in data set [1] (same dose 10 μg/ml) was “higher inhibitory effect”.
